pIC50: −log10 of the molar value. Read-outs that look alike come from different tables or passages of the source.
Tests used:
Type in all cases: cell-based
[1] = test system: S. mansoni juvenile worms; assay: In vitro assay, S. mansoni juvenile worms; details: Schistosoma mansoni, read-out: (b) Juvenile
Method: (§1) The routine biological assays using adult or juvenile worms and cytotoxicity assays using MRC-5 cells have been disclosed previously in Mansour, N. R., et al. (2016). “High Throughput Screening Identifies Novel Lead Compounds with Activity against Larval, Juvenile and Schistosoma mansoni PLoS Negl Trap Dis 10(4): e0004659. Cytotoxicity assays using the HepG2 cell line were carried out as described in Molecular Diversity (2015) 19, 251-261.
(b) S. mansoni juvenile worms

HepG2 cell line = assay: Cytotoxicity against human HepG2 cell lines
S. mansoni adult worms = assay: In vitro assay, S. mansoni adult worms; details: Schistosoma mansoni, read-out: (a) Adult
Method: as §1
(a) S. mansoni adult worms

[2] = S. mansoni juvenile worms, in vitro
[3] = S. mansoni adult worms, in vitro

| Compound | pIC50 [1, 2] | pIC50 (S. mansoni adult worms; [3]) | pIC50 [1] | (e) Cytotox HepG2 (HepG2 cell line) [µM] | pIC50 (S. mansoni adult worms) |
| --- | --- | --- | --- | --- | --- |
| CC(C)c1nc2cnc(-c3cccc(C(F)(F)F)c3)cn2c1-c1ccc(OP(=O)(O)O)cc1F [Example 3, 3-fluoro-4-[2-(propan-2-yl)-6-[3-(trifluoromethyl)phenyl]imidazo[1,2-a]pyrazin-3-yl]phenoxyphosphonic acid] |  |  | 6.89 | 9.2 | > 7.31 |
| CC(C)c1nc2cnc(-c3cccc(C(F)(F)F)c3)cn2c1-c1c(F)cc(O)cc1F [Example 19, 3,5-difluoro-4-[2-(propan-2-yl)-6-[3-(trifluoromethyl)phenyl]imidazo[1,2-a]pyrazin-3-yl]phenol] | 7.05 | 7.38 |  | 7.5 |  |
| CC(C)c1nc2cnc(-c3cccc(C(F)(F)F)c3)cn2c1-c1ccc2[nH]ncc2c1F [Example 21, 4-fluoro-5-{2-propan-2-yl-6-[3-trifluoromethylphenyl]imidazo[1,2-a]pyrazin-3-yl}-1H-indazole] | 7.29 | 7.43 |  | 15.1 |  |
| CC1(c2nc3cnc(-c4ccc(F)c(C(F)(F)F)c4)cn3c2-c2c(F)cc(O)cc2F)CC1 [Example 33, 3,5-difluoro-4-[2-(1-methyl-cycloprop-1-yl)-6-[4-fluoro-3-(trifluoromethyl)phenyl]imidazo[1,2-a]pyrazin-3-yl]phenol] | 7.10 | 7.25 |  | 7.9 |  |
| Oc1cc(F)c(-c2c(C3CCC3)nc3cnc(-c4ccc(F)c(C(F)(F)F)c4)cn23)c(F)c1 [Example 35, 4-(2-cyclobutyl-6-(4-fluoro-3-(trifluoromethyl)phenyl)imidazo[1,2-a]pyrazin-3-yl)-3,5-difluorophenol] | 7.14 | 7.23 |  | 5.7 |  |
| CCc1nc2cnc(-c3ccc(F)c(C(F)(F)F)c3)cn2c1-c1c(F)cc(O)cc1F [Example 36, 3,5-difluoro-4-[2-ethyl-6-[4-fluoro-3-(trifluoromethyl)phenyl]imidazo[1,2-a]pyrazin-3-yl]phenol] | 7.29 | 7.28 |  | 8.3 |  |
| CC(C)c1nc2cnc(-c3ccc(F)c(C(F)(F)F)c3)cn2c1-c1c(F)cc(OP(=O)(O)O)cc1F [Example 40, 3,5-difluoro-4-{6-[4-fluoro-3-(trifluoromethyl)phenyl]-2-(propan-2-yl)imidazo[1,2-a]pyrazin-3-yl}phenoxyphosphonic acid] |  |  | 7.60 | 6.5 | 7.57 |
| Fc1c(-c2c(C3CC3)nc3cnc(-c4cccc(S(F)(F)(F)(F)F)c4)cn23)ccc2[nH]ncc12 [Example 46, 2-cyclopropyl-3-(4-fluoro-1H-indazol-5-yl)-6-(3-(pentafluoro-λ6-sulfaneyl)phenyl)imidazo[1,2-a]pyrazine] | 7.44 |  |  | 20.7 |  |
| CC(C)c1nn2cnc(-c3ccc(F)c(C(F)(F)F)c3)cc2c1-c1c(F)cc(O)cc1F [Example 47, 3,5-difluoro-4-(5-(4-fluoro-3-(trifluoromethyl)phenyl)-2-isopropylpyrazolo[1,5-c]pyrimidin-3-yl)phenol] | 7.57 | 7.66 |  | 8.9 |  |
| CCc1nn2cnc(-c3ccc(F)c(C(F)(F)F)c3)cc2c1-c1c(F)cc(O)cc1F [Example 48, 4-(2-ethyl-5-(4-fluoro-3-(trifluoromethyl)phenyl)pyrazolo[1,5-c]pyrimidin-3-yl)-3,5-difluorophenol] | 7.49 | 7.96 |  | 9.8 |  |
| Cc1nc2cnc(-c3cccc(C(F)(F)C(F)(F)F)c3)cn2c1-c1c(F)cc(O)cc1F [Example 49, 3,5-difluoro-4-[2-methyl-6-[3-(pentafluoroethyl)phenyl]imidazo[1,2-a]pyrazin-3-yl]phenol] | 7.46 | 7.47 |  | 9.3 |  |
| Fc1ccc(-c2cn3c(-c4ccc5[nH]ncc5c4F)c(C4CC4)nc3cn2)cc1S(F)(F)(F)(F)F [Example 57, 2-Cyclopropyl-3-(4-fluoro-1H-indazol-5-yl)-6-(4-fluoro-3-pentafluorosulfanyl-phenyl)-imidazo[1,2-a]pyrazine] | 7.52 | 7.77 |  | 14.8 |  |
| O=P(O)(O)Oc1cc(F)c(-c2c(C3CC3)nc3cnc(-c4ccc(F)c(C(F)(F)F)c4)cn23)c(F)c1 [Example 62, Phosphoric acid mono-{4-[2-cyclopropyl-6-(4-fluoro-3-trifluoromethyl-phenyl)-imidazo[1,2-a]pyrazin-3-yl]-3,5-difluoro-phenyl}ester] |  |  | 8.43 | 14.8 |  |
| Fc1c(-c2c(C(F)(F)F)nc3cnc(-c4cccc(OC(F)(F)F)c4)cn23)ccc2[nH]ncc12 [Example 72, 3-(4-Fluoro-1H-indazol-5-yl)-6-(3-trifluoromethoxy-phenyl)-2-trifluoromethyl-imidazo[1,2-a]pyrazine] | 7.64 | 7.68 |  | 9.7 |  |

More lines, main results first:

| pIC50 [1, 2] | pIC50 (S. mansoni adult worms; [3]) | Compound | pIC50 [1] | (e) Cytotox HepG2 (HepG2 cell line) [µM] | pIC50 (S. mansoni adult worms) |
| --- | --- | --- | --- | --- | --- |
| > 7.92 | 7.66 | CC(C)c1nn2cnc(-c3cccc(C(F)(F)F)c3)cc2c1-c1c(F)cc(O)cc1F [Example 24, 3,5-difluoro-4-(2-isopropyl-5-(3-(trifluoromethyl)phenyl)pyrazolo[1,5-c]pyrimidin-3-yl)phenol] |  | 8.4 |  |
| > 7.92 | 7.68 | COc1ccc(-c2c(C(F)(F)F)nc3cnc(-c4cccc(C(F)(F)C(F)(F)F)c4)cn23)cc1O [Example 30, 2-methoxy-5-[2-(trifluoromethyl)-6-[3-(pentafluoroethyl)phenyl]imidazo[1,2-a]pyrazin-3-yl]phenol] |  | 11.1 |  |
| > 7.92 | 7.62 | CC(C)c1nc2cnc(-c3cccc(S(F)(F)(F)(F)F)c3)cn2c1-c1c(F)cc(O)cc1F [Example 39, 3,5-difluoro-4-[2-(propan-2-yl)-6-[3-(pentafluorosulfanyl)phenyl]imidazo[1,2-a]pyrazin-3-yl]phenol] |  | 6.6 |  |
| 8.00 | > 7.92 | CCc1nc2cnc(-c3cccc(C(F)(F)C(F)(F)F)c3)cn2c1-c1c(F)cc(O)cc1F [Example 52, 4-[2-Ethyl-6-(3-pentafluoroethyl-phenyl)-imidazo[1,2-a]pyrazin-3-yl]-3,5-difluoro-phenol] |  | 8.0 |  |
| 7.70 | 7.72 | Cc1nc2cnc(-c3ccc(F)c(C(F)(F)C(F)(F)F)c3)cn2c1-c1c(F)cc(O)cc1F [Example 53, 3,5-Difluoro-4-[6-(4-fluoro-3-pentafluoroethyl-phenyl)-2-methyl-imidazo[1,2-a]pyrazin-3-yl]-phenol] |  | 8.8 |  |
| 7.70 | 7.72 | Oc1cc(F)c(-c2c(C3CC3)nc3cnc(-c4ccc(F)c(S(F)(F)(F)(F)F)c4)cn23)c(F)c1 [Example 56, 4-[2-Cyclopropyl-6-(4-fluoro-3-pentafluorosulfanyl-phenyl)-imidazo[1,2-a]pyrazin-3-yl]-3,5-difluoro-phenol] |  | 10.1 |  |
| 7.70 | 7.51 | CC(C)c1nn2cnc(-c3ccc(F)c(C(F)(F)C(F)(F)F)c3)cc2c1-c1ccc2[nH]ncc2c1F [Example 58, 3-(4-Fluoro-1H-indazol-5-yl)-5-(4-fluoro-3-pentafluoroethyl-phenyl)-2-isopropylpyrazolo[1,5-c]pyrimidine] |  | 10.8 |  |
| 7.96 | 7.36 | Fc1ccc(-c2cn3c(-c4ccc5[nH]ncc5c4F)c(C(F)(F)F)nc3cn2)cc1S(F)(F)(F)(F)F [Example 65, 3-(4-Fluoro-1H-indazol-5-yl)-6-(4-fluoro-3-pentafluorosulfanyl-phenyl)-2-trifluoromethyl-imidazo[1,2-a]pyrazine] |  | 11.1 |  |
| 8.28 | 8.28 | CC(C)c1cccc(-c2cn3c(-c4ccc5[nH]ncc5c4F)c(C(F)(F)F)nc3cn2)c1 [Example 66, 3-(4-Fluoro-1H-indazol-5-yl)-6-(3-isopropyl-phenyl)-2-trifluoromethyl-imidazo[1,2-a]pyrazine] |  | 12.9 |  |
| 8.00 | 7.92 | Fc1ccc(-c2cn3c(-c4ccc5[nH]ncc5c4F)c(C(F)(F)F)nc3cn2)cc1CC(F)(F)F [Example 69, 3-(4-Fluoro-1H-indazol-5-yl)-6-[4-fluoro-3-(2,2,2-trifluoro-ethyl)-phenyl]-2-trifluoromethyl-imidazo[1,2-a]pyrazine] |  | 5.3 |  |
| 7.68 | 7.85 | Fc1ccc(-c2cn3c(-c4ccc5[nH]ncc5c4F)c(C(F)(F)F)nc3cn2)cc1OC(F)(F)F [Example 71, 3-(4-Fluoro-1H-indazol-5-yl)-6-(4-fluoro-3-trifluoromethoxy-phenyl)-2-trifluoromethyl-imidazo[1,2-a]pyrazine] |  | 12.2 |  |
| 8.30 | 8.40 | CC(C)c1cc(-c2cn3c(-c4ccc5[nH]ncc5c4F)c(C(C)C)nc3cn2)ccc1F [Example 74, 3-(4-Fluoro-1H-indazol-5-yl)-6-(4-fluoro-3-isopropyl-phenyl)-2-isopropyl-imidazo[1,2-a]pyrazine] |  | 11.0 |  |
| 8.30 | 8.40 | CCc1nc2cnc(-c3ccc(F)c(C(C)C)c3)cn2c1-c1ccc2[nH]ncc2c1F [Example 75, 2-Ethyl-3-(4-fluoro-1H-indazol-5-yl)-6-(4-fluoro-3-isopropyl-phenyl)-imidazo[1,2-a]pyrazine] |  | 11.3 |  |
